Values of other authors as cited in paper PMC10401651, “Characterization of Uranyl (UO2^2+) Ion Binding to Amyloid Beta (Aβ) Peptides: Effects on Aβ Structure and Aggregation” (ACS Chemical Neuroscience, 2023).

Molecular target: T1, Aβ42 oligomers (Homo sapiens, UniProt P05067)
T1 construct: Synthetic lyophilized wt Aβ (1–42) peptides, abbreviated as Aβ42; purchased JPT Peptide Technologies (Germany); host or cells: synthetic peptide
Parameters: method as in PMID 36849796
Settings: 0.05% SDS; cited from earlier work

T1 sequence (P05067 672-713 limits assumed): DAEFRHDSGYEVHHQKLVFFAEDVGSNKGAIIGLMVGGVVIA

For `[Ni+2]` [Ni(II) ions], the “concentration required for full disruption of homogeneous AβO0.05%SDS oligomers” value is given as 500 mM.
